{"source": "paper PMC2254147", "about": "“Novel Triazine JPC-2067-B Inhibits Toxoplasma gondii In Vitro and In Vivo” (PLoS Neglected Tropical Diseases, 2008)", "key": {"P. falciparum": {"test_system": "P. falciparum", "conditions": "ref [4]-[11]; cited from earlier work"}, "Rat liver DHFR": {"molecular_target": "T1, Rat liver DHFR (Rattus norvegicus, UniProt Q920D2)", "T1 construct": "Rat liver DHFR was prepared from livers of female Sprague-Dawley rats; from tissue; host or cells: liver of female Sprague-Dawley rats", "T1 sequence (Q920D2 1-187)": "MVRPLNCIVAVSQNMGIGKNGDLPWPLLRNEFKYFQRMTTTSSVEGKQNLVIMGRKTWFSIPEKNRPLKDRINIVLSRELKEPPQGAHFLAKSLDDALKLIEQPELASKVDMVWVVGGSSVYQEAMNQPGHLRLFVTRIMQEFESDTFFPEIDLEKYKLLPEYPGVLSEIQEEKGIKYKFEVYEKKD", "test": "Spectrophotometric DHFR assay, rat liver DHFR", "assay_type": "biochemical", "conditions": "for IC50: 37°C, (95% confidence limits); for Selectivity for pathogen DHFR (in words): rat liver DHFR versus Pc, Tg, Mav DHFR, Table 1", "method": "Rat liver DHFR was prepared from livers of female Sprague-Dawley rats. The 100,000× g supernate was partially purified by ammonium sulfate precipitation; the 50–90% precipitate was re-dissolved and stored in liquid nitrogen.\n(§1) The spectrophotometric assay for DHFR was optimized for temperature and concentration of substrate and cofactor for each enzyme. […] The reaction was continuously recorded for 3 minutes. […] The low background activity in the absence of dihydrofolic acid was subtracted from all rates.\n(§2) DHFR was assayed with several concentrations of inhibitor to produce rates ranging from 1 to 90% of the uninhibited rate. At least three concentrations were required for calculation; most curves contained five concentrations."}, "Pc DHFR": {"molecular_target": "T2, Pc DHFR (Pneumocystis carinii, UniProt P16184)", "T2 construct": "made in house; host or cells: Escherichia coli", "T2 sequence (P16184 1-206)": "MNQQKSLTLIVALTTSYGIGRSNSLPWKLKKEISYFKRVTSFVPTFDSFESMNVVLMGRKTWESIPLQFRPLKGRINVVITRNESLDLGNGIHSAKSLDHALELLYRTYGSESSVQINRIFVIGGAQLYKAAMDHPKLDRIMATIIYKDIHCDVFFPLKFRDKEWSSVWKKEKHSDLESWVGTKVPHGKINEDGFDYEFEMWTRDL", "test": "Spectrophotometric DHFR assay, Pneumocystis carinii DHFR", "assay_type": "biochemical", "text": "DHFR from Pneumocystis carinii was produced as the recombinant enzyme expressed in Escherichia coli. […] DHFR from T. gondii was isolated directly from RH strain T. gondii grown in culture on Chinese hamster ovary cells lacking DHFR (CHO/dhfr^-, American Type Culture Collection 3952 CL). Organisms were introduced into a confluent monolayer and harvested when the mammalian cells were lysed. The 100,000× g supernate was stored in liquid nitrogen.\nThe spectrophotometric assay for DHFR was optimized for temperature and concentration of substrate and cofactor for each enzyme. The standard assay contained Na phosphate buffer pH 7.4 (40.7 mM), 2-mercaptoethanol (8.9 mM), NADPH (0.117 mM), dihydrofolic acid (0.09 mM), KCL (150 mM), and sufficient enzyme to produce a change in OD340 of 0.035/minute at 37°C. The reaction was continuously recorded for 3 minutes. […] The low background activity in the absence of dihydrofolic acid was subtracted from all rates.\nas §2"}, "Mav DHFR": {"molecular_target": "T3, Mav DHFR (Mycobacterium avium, UniProt O30463)", "T3 construct": "the bacteria were centrifuged, sonicated, and the 100,000 Xg supernate was stored under liquid nitrogen until assay; endogenous in cells; host or cells: M. avium-intracellulare clinical isolate (serovar 4), Indiana University School of Medicine", "T3 sequence (O30463 1-181)": "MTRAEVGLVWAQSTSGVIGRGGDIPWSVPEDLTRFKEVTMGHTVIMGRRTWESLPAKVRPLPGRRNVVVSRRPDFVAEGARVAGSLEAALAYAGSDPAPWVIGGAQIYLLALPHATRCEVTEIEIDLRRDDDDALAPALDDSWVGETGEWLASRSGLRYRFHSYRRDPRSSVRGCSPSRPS", "test": "Spectrophotometric DHFR assay, Mycobacterium avium-intracellulare DHFR", "assay_type": "biochemical", "conditions": "37°C; (95% confidence limits)", "method": "Mycobacterium avium-intracellulare used in these studies was a clinical isolate (serovar 4) from Indiana University School of Medicine, Department of Pathology. The strain was maintained on Lowenstein-Jensen slants (Baxter Scientific) grown at room temperature. To produce enzyme, the organism was grown in Middlebrook 7H-9 liquid medium at 37°C to an OD660 of 0.5 to 0.7, which took several weeks. At harvest, the bacteria were centrifuged, sonicated, and the 100,000 Xg supernate was stored under liquid nitrogen until assay. These supernates contained both DHFR and dihydroopteroate synthetase activity.\nThe spectrophotometric assay for DHFR was optimized for temperature and concentration of substrate and cofactor for each enzyme. The standard assay contained Na phosphate buffer pH 7.4 (40.7 mM), 2-mercaptoethanol (8.9 mM), NADPH (0.117 mM), dihydrofolic acid (0.09 mM), KCL (150 mM), and sufficient enzyme to produce a change in OD340 of 0.035/minute at 37°C. The reaction was continuously recorded for 3 minutes. Activity under these conditions was linear with enzyme concentration over a 4-fold range. The low background activity in the absence of dihydrofolic acid was subtracted from all rates.\nas §2"}, "[1]": {"test_system": "tester strains TA97, TA98, TA100, TA102 and TA1535", "test": "Ames Test with and without microsomal activation", "method": "(§3) A 42-day toxicology study in CD-1 mice at doses up to 98 mg/kg evaluating well-being, weight gain, and histopathology was performed. […] 7.5 mg/kg was established as the NOAEL (No Observed Adverse Effect Level). JPC-2056 and JPC-2067 were assayed in the Ames Test with and without microsomal activation with tester strains TA97, TA98, TA100, TA102 and TA1535."}, "[2]": {"test": "42-day toxicology study in CD-1 mice", "assay_type": "in vivo", "method": "as §3"}, "[3]": {"test": "42-day toxicology study in Macaca fascicularis", "assay_type": "in vivo"}, "[4]": {"test": "Thompson Antimalarial Assay LD50", "conditions": "mouse, in vivo; @ Day 6"}, "TgDHFR": {"molecular_target": "T4, TgDHFR (Toxoplasma gondii, UniProt Q07422)", "T4 construct": "DHFR from T. gondii was isolated directly from RH strain T. gondii grown in culture; endogenous in cells; host or cells: RH strain T. gondii grown on CHO/dhfr- cells", "T4 sequence (Q07422 1-610)": "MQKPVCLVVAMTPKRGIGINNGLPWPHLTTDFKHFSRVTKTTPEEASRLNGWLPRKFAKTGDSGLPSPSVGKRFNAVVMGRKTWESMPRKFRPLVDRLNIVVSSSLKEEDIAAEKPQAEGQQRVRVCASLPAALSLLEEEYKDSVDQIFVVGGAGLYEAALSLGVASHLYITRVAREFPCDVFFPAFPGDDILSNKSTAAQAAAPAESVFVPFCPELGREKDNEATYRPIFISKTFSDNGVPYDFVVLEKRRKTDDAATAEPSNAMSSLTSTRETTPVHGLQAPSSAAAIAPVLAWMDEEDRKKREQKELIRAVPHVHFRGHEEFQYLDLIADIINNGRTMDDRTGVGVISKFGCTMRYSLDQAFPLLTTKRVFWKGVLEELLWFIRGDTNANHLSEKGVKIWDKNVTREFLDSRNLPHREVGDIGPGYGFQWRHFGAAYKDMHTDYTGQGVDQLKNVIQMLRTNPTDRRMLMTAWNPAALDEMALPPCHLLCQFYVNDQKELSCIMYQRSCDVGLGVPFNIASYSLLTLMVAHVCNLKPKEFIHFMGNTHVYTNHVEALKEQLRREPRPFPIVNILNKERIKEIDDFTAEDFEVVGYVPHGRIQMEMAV", "test": "biochemical", "assay_type": "biochemical", "method": "DHFR from Pneumocystis carinii was produced as the recombinant enzyme expressed in Escherichia coli. […] Organisms were introduced into a confluent monolayer and harvested when the mammalian cells were lysed. The 100,000× g supernate was stored in liquid nitrogen.\nas §1, §2"}, "[5]": {"test_system": "tester strains TA97, TA98, TA100, TA102 and TA1535", "test": "Ames Test with and without microsomal activation", "conditions": "Tester Strains TA98, TA100, TA1535, TA1537 and TA1538"}, "P. falciparum strains": {"test_system": "P. falciparum strains", "conditions": "drug-sensitive and drug-resistant strains; ref [4]-[10]; cited from earlier work"}, "[6]": {"conditions": "ref 4 (superscript at the row head, footnote not given); cited from earlier work"}, "[7]": {"conditions": "ref 4 (superscript at the row head, footnote not given); cited from earlier work", "remark": "listed apart in the source"}, "[8]": {"conditions": "42-day study, doses up to 98 mg/kg"}}, "note": "Where two headings read alike, the source gives them in different places."}
{"smiles": "CC(C)N=C(N)/N=C(\\N)NOCCCOc1cc(Cl)c(Cl)cc1Cl.Cl", "note": "[PS-15]", "values": [{"measurement": "Activity in vivo against P. falciparum, greater than that of pyrimethamine", "setting": "P. falciparum", "result": 2, "unit": "logs"}]}
{"smiles": "CCc1nc(N)nc(N)c1-c1ccc(Cl)cc1", "note": "[JPC-1090-A-1, Pyrimethamine]", "values": [{"measurement": "IC50", "setting": "Rat liver DHFR", "result": 1320, "unit": "nM"}, {"measurement": "IC50", "setting": "Pc DHFR", "result": 6.17, "unit": "µM"}, {"measurement": "IC50", "setting": "Mav DHFR", "result": 1200, "unit": "nM"}]}
{"smiles": "CC(C)NC(=N)NC(=N)NOCCCOc1ccc(OC(F)(F)F)cc1Cl", "note": "[JPC-2056, 1-(3′-(2-chloro-4-trifluoromethoxyphenyloxy)propyloxy)-5-isopropylbiguanide]", "values": [{"measurement": "Ames Test, with and without microsomal activation", "setting": "[1]", "result": "No activity"}, {"measurement": "Ames w/o Activation", "setting": "[1]", "result": "Not Active ^*"}, {"measurement": "Ames with Activation", "setting": "[1]", "result": "Not Active ^*"}, {"measurement": "Toxicological findings, CD-1 Mice", "setting": "[2]; 98 mg/kg for 42 days", "result": "Inhibition of Weight Gain at 98 mg/kg for 42 days"}, {"measurement": "Gross pathology, CD-1 mice", "setting": "[2]; [8]", "result": "no gross pathology with the exception of a reduction in the rate of weight gain"}, {"measurement": "Histopathology findings, CD-1 mice", "setting": "[2]; [8]", "result": "no histopathology findings"}, {"measurement": "Toxicological findings, Cynomolgous Monkey", "setting": "[3]; 15 mg/kg for 42 days", "result": "Intermittent Loose Stools/Diarrhea 15 mg/kg for 42 days"}, {"measurement": "Findings in Macaca fascicularis at 15 mg/kg", "setting": "[3]; 42-day study, 15 mg/kg, resolved upon drug withdrawal", "result": "histopathology findings at 15 mg/kg with sproradic episodes of loose stools/diarrhea"}, {"measurement": "NOAEL at 42 day", "setting": "[3]; cynomolgus monkey, in vivo, 42-day study, read-out: NOAEL (No Observed Adverse Effect Level)", "result": 7.5, "unit": "mg/kg"}, {"measurement": "LD50 at 6 day", "setting": "[4]", "result": 256, "unit": "mg/kg"}]}
{"smiles": "CC1(C)N=C(N)N=C(N)N1c1ccc(Cl)cc1", "note": "[JPC-2013-B-1, cycloguanil]", "values": [{"measurement": "IC50", "setting": "Rat liver DHFR", "result": 1730, "unit": "nM"}, {"measurement": "Selectivity for pathogen DHFR (in words)", "setting": "Rat liver DHFR", "result": "not significantly selective"}, {"measurement": "IC50", "setting": "Pc DHFR", "result": 8.9, "unit": "µM"}, {"measurement": "IC50", "setting": "TgDHFR", "result": 410, "unit": "nM"}, {"measurement": "IC50", "setting": "Mav DHFR", "result": 12100, "unit": "nM"}]}
{"smiles": "CC1(C)N=C(N)N=C(N)N1OCCCOc1cc(Cl)c(Cl)cc1Cl", "note": "[JPC-208-B, 4,6-diamino-1,2-dihydro-2,2-dimethyl-1-[3′(2,4,5-trichlorophenoxy)propyloxy]-1,3,5-triazine]", "values": [{"measurement": "IC50", "setting": "Rat liver DHFR", "result": 0.81, "unit": "nM"}, {"measurement": "Selectivity for pathogen DHFR (in words)", "setting": "Rat liver DHFR", "result": "not selective"}, {"measurement": "IC50", "setting": "Pc DHFR; 37°C, (95% confidence limits), read-out: Pc DHFR IC50", "result": 0.000265, "unit": "µM"}, {"measurement": "IC50", "setting": "TgDHFR; 37°C, (95% confidence limits), read-out: Tg DHFR IC50", "result": 0.602, "unit": "nM"}, {"measurement": "IC50", "setting": "Mav DHFR", "result": 0.57, "unit": "nM"}, {"measurement": "LD50 at 6 day", "setting": "[4]", "result": "> 128", "unit": "mg/kg"}, {"measurement": "Ames w/o Activation", "setting": "[5]", "result": "Not Active ^#"}, {"measurement": "Ames with Activation", "setting": "[5]", "result": "Not Active ^#"}, {"measurement": "ED50 in vitro against P. falciparum strains", "setting": "P. falciparum strains", "result": 0.05, "unit": "ng/mL"}, {"measurement": "Activity in vivo against P. falciparum, greater than that of pyrimethamine", "setting": "P. falciparum", "result": 2, "unit": "logs"}, {"measurement": "Oral LD50 Rat", "setting": "[6]", "result": "1,980 mg/kg"}, {"measurement": "Oral LD50 Mouse", "setting": "[7]", "result": "3,510 mg/kg"}]}
